The source of these data is patent publication US12398097B2, “WDR5-MYC inhibitors” (Vanderbilt University, priority 2019, dated 2025).

This test deals with WDR5 (Homo sapiens, UniProt P61964). Kind of test: Competition-based fluorescence polarization anisotropy assay. To be noted: binding to WDR5; displacement of FITC-labeled small molecule probe (analogous to Example J2 or HCH-25) or peptide probe FITC-AHx-SEEEIDVVSV; pH 6.0; Ki converted from IC50. The gist of the method: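 Ki values derive from displacement of either a fluorescent small-molecule probe or a FITC-peptide probe from WDR5, monitored by fluorescence polarization. Assay run at pH 6.0 in 200 mM phosphate with 300 mM NaCl, 0.5 mM TCEP and 0.1% Chaps.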

With `COc1cc(Cl)c(Br)cc1S(=O)(=O)Nc1cc(C2CC2)cc(C(N)=O)c1O` [Example J105, 3-((5-Bromo-4-chloro-2-methoxyphenyl)sulfonamido)-5-cyclopropyl-2-hydroxybenzamide], the inhibition constant (Ki) stood at 13000 nM.
With `CS(=O)(=O)c1cc(C2CC2)cc(NS(=O)(=O)c2cc(Br)ccc2O)c1O` [Example S26, 5-Bromo-N-(5-cyclopropyl-2-hydroxy-3-(methylsulfonyl)phenyl)-2-hydroxybenzenesulfonamide], affinity was put at a Ki of 240 nM. Against the preceding compound, the Ki is about 54-fold lower.
`COc1cc(Cl)c(Br)cc1S(=O)(=O)Nc1cc(Cl)cc(C(=O)O)c1O` [Example J7, 3-((5-Bromo-4-chloro-2-methoxyphenyl)sulfonamido)-5-chloro-2-hydroxybenzoic acid] showed a Ki of 3750 nM.
With `O=C(N[C@H]1CCOC1)c1c(O)c(NS(=O)(=O)c2cc(Br)ccc2O)cc(C2CC2)c1F` [Example J133, (S)-3-((5-Bromo-2-hydroxyphenyl)sulfonamido)-5-cyclopropyl-6-fluoro-2-hydroxy-N-(tetrahydrofuran-3-yl)benzamide], affinity was put at a Ki of 4510 nM.
The value for `O=C(O)c1cc(OC(F)(F)F)cc(NS(=O)(=O)c2cc(Br)ccc2O)c1O` [Example J160, 3-((5-Bromo-2-hydroxyphenyl)sulfonamido)-2-hydroxy-5-(trifluoromethoxy)benzoic acid] was 60 nM; that for `N#CC1(c2cc(NS(=O)(=O)c3cc(Br)ccc3O)c(O)c(C(=O)O)c2)CCC1` [Example J203, 3-((5-Bromo-2-hydroxyphenyl)sulfonamido)-5-(1-cyanocyclobutyl)-2-hydroxybenzoic acid] was 40 nM; that for `O=C(NCC1CCCO1)c1cc(Cl)cc(NS(=O)(=O)c2cc(Br)ccc2O)c1O` (stereo not drawn) [Example J25, 3-((5-Bromo-2-hydroxyphenyl)sulfonamido)-5-chloro-2-hydroxy-N-((tetrahydrofuran-2-yl)methyl)benzamide] was 230 nM.
For the compound `O=C(Nc1nc[nH]n1)c1cc(NS(=O)(=O)c2cc(Br)cc(Cl)c2O)cc(C2CC2)c1F` [Example J154, 5-((5-Bromo-3-chloro-2-hydroxyphenyl)sulfonamido)-3-cyclopropyl-2-fluoro-N-(1H-1,2,4-triazol-3-yl)benzamide], the affinity corresponds to a Ki of 130 nM.
Turning to `O=C(NC1COC1)c1cc(NS(=O)(=O)c2cc(Br)cc(Cl)c2O)cc(C2CC2)c1F` [Example J155, 5-((5-Bromo-3-chloro-2-hydroxyphenyl)sulfonamido)-3-cyclopropyl-2-fluoro-N-(oxetan-3-yl)benzamide], the Ki came out at 330 nM.
Turning to `COC1CN(C(=O)c2cc(C3(C#N)CCC3)cc(NS(=O)(=O)c3cc(Br)ccc3O)c2O)C1` [Example J223, 5-Bromo-N-(5-(1-cyanocyclobutyl)-2-hydroxy-3-(3-methoxyazetidine-1-carbonyl)phenyl)-2-hydroxybenzenesulfonamide], the Ki turned out to be 430 nM.
With `NC(=O)c1cc(C2CC2)cc(NS(=O)(=O)c2cc(Br)ccc2O)c1O` [Example J80, 3-((5-Bromo-2-hydroxyphenyl)sulfonamido)-5-cyclopropyl-2-hydroxybenzamide], the Ki was determined as 1640 nM.
Regarding `COCCNC(=O)c1cc(NS(=O)(=O)c2cc(Br)cc(Cl)c2O)cc(C2CC2)c1F` [Example J152, 5-((5-Bromo-3-chloro-2-hydroxyphenyl)sulfonamido)-3-cyclopropyl-2-fluoro-N-(2-methoxyethyl)benzamide], the affinity corresponds to a Ki of 320 nM.
The compound `COCCNC(=O)c1cc(Cl)cc(NS(=O)(=O)c2cc(Br)cc(Cl)c2O)c1O` [Example J42, 3-((5-Bromo-3-chloro-2-hydroxyphenyl)sulfonamido)-5-chloro-2-hydroxy-N-(2-methoxyethyl)benzamide] came in with a Ki of 300 nM.
Take `CCc1cc(NS(=O)(=O)c2cc(Br)cc(Cl)c2O)c(O)c(C(=O)O)c1` [HCH-22, 3-((5-Bromo-3-chloro-2-hydroxyphenyl)sulfonamido)-5-ethyl-2-hydroxybenzoic acid]: the affinity corresponds to a Ki of 90 nM. This Ki is about 3.3-fold lower than that of the compound before.
As to `CS(=O)(=O)c1cc(C(F)(F)F)cc(NS(=O)(=O)c2cc(Br)ccc2O)c1O` [Example S25, 5-Bromo-3-2-hydroxy-N-(2-hydroxy-3-(methylsulfonyl)-5-(trifluoromethyl)phenyl)benzenesulfonamide], affinity was put at a Ki of 90 nM.
For `CNC(=O)c1cc(OC(F)(F)F)cc(NS(=O)(=O)c2cc(Br)cc3cccnc23)c1O` [Example J182, 3-((6-Bromoquinoline)-8-sulfonamido)-2-hydroxy-N-methyl-5-(trifluoromethoxy)benzamide] the value was 1060 nM; for `O=C(O)c1cc(NS(=O)(=O)c2cc(Br)ccc2O)cc(C2CC2)c1F` [Example J114, 5-((5-Bromo-2-hydroxyphenyl)sulfonamido)-3-cyclopropyl-2-fluorobenzoic acid], 520 nM.
`COc1ccc(Br)cc1S(=O)(=O)Nc1cc(C(=O)O)cc(C2=CCOCC2)c1` [Example J193, 3-((5-Bromo-2-methoxyphenyl)sulfonamido)-5-(3,6-dihydro-2H-pyran-4-yl)benzoic acid] yielded a Ki of 69200 nM.
As to `CN1CCC(O)(CNC(=O)c2cc(OC(F)(F)F)cc(NS(=O)(=O)c3cc(Br)cc(Cl)c3O)c2O)CC1` [HCH-50, 3-((5-Bromo-3-chloro-2-hydroxyphenyl)sulfonamido)-2-hydroxy-N-((4-hydroxy-1-methylpiperidin-4-yl)methyl)-5-(trifluoromethoxy)benzamide], the affinity corresponds to a Ki of 210 nM. This Ki lies about 330-fold lower than the previous one.
In the case of `CCc1cc(Br)cc(S(=O)(=O)Nc2cc(Cl)cc(C(=O)NC3COC3)c2O)c1O` [HCH-58, 3-((5-Bromo-3-ethyl-2-hydroxyphenyl)sulfonamido)-5-chloro-2-hydroxy-N-(oxetan-3-yl)benzamide], the Ki was 460 nM.
`CNC(=O)c1cc(Cl)cc(NS(=O)(=O)c2cc(Br)cc(Cl)c2O)c1` [Example S69, 3-((5-Bromo-3-chloro-2-hydroxyphenyl)sulfonamido)-5-chloro-N-methylbenzamide] yielded a Ki of 770 nM.
Compound `CN(C)CCNC(=O)c1cc(C2CC2)cc(NS(=O)(=O)c2cc(Br)ccc2O)c1O` [Example J89] displayed a Ki of 1310 nM.
Consider `CCc1cc(Br)cc(S(=O)(=O)Nc2cc(Cl)cc(S(C)(=O)=O)c2)c1O` [Example S5, 5-Bromo-N-(3-chloro-5-(methylsulfonyl)phenyl)-3-ethyl-2-hydroxybenzenesulfonamide], for which the affinity corresponds to a Ki of 610 nM. This Ki lies about 2.1-fold lower than the previous one.
As to `N#CC1(c2cc(NS(=O)(=O)c3cc(Br)cc(Cl)c3O)cc(C(=O)O)c2)CCC1` [Example S71, 3-((5-Bromo-3-chloro-2-hydroxyphenyl)sulfonamido)-5-(1-cyanocyclobutyl)benzoic acid], the Ki is 10 nM. This Ki lies about 61-fold lower than the previous one.
The compound `O=C(O)c1c(O)c(NS(=O)(=O)c2cc(Br)ccc2O)cc(-c2ccsc2)c1F` [Example J199, 3-((5-Bromo-2-hydroxyphenyl)sulfonamido)-6-fluoro-2-hydroxy-5-(thiophen-3-yl)benzoic acid] gave a Ki of 640 nM. This Ki lies about 64-fold higher than the previous one.
The value for `O=[N+]([O-])c1cc(Cl)cc(NS(=O)(=O)c2cc(Br)cc3c2OCC3)c1O` [NE7, 5-Bromo-N-(5-chloro-2-hydroxy-3-nitrophenyl)-2,3-dihydrobenzofuran-7-sulfonamide] was 1110 nM; that for `COC1CC(NC(=O)c2cc(OC(F)(F)F)cc(NS(=O)(=O)c3cc(Br)cc(Cl)c3O)c2O)C1` (stereo not drawn) [HCH-60, 3-((5-Bromo-3-chloro-2-hydroxyphenyl)sulfonamido)-2-hydroxy-N-(3-methoxycyclobutyl)-5-(trifluoromethoxy)benzamide] was 240 nM; that for `CNC(=O)c1cc(C2CC2)cc(NS(=O)(=O)c2cc(Br)cc(F)c2O)c1O` [Example J98, 3-((5-Bromo-3-fluoro-2-hydroxyphenyl)sulfonamido)-5-cyclopropyl-2-hydroxy-N-methylbenzamide] was 2320 nM.
In the case of `COCCNC(=O)c1cc(C2CC2)cc(NS(=O)(=O)c2cc(Br)ccc2O)c1O` [Example J86, 3-((5-Bromo-2-hydroxyphenyl)sulfonamido)-5-cyclopropyl-2-hydroxy-N-(2-methoxyethyl)benzamide], the Ki was 560 nM.
As to `O=C(O)c1cc(S(F)(F)(F)(F)F)cc(NS(=O)(=O)c2cc(Br)cc(Cl)c2O)c1O` [Example S64, 3-((5-Bromo-3-chloro-2-hydroxyphenyl)sulfonamido)-2-hydroxy-5-(pentafluoro-λ^6-sulfaneyl)benzoic acid], the Ki was determined as 20 nM.
Regarding “2-Bromo-N-(5-chloro-2-hydroxy-3-nitrophenyl)-4-ethyl-5-hydroxybenzenesulfonamide [NE3]”, affinity was put at a Ki of 60 nM.
`O=C(NC1COC1)c1cc(Cl)cc(NS(=O)(=O)c2cc(Br)ccc2O)c1O` [Example J21, 3-((5-Bromo-2-hydroxyphenyl)sulfonamido)-5-chloro-2-hydroxy-N-(oxetan-3-yl)benzamide] registered a Ki of 580 nM.
For `COCCNS(=O)(=O)c1cc(Cl)cc(NS(=O)(=O)c2cc(Br)ccc2O)c1O` [Example S31, 5-bromo-N-(5-chloro-2-hydroxy-3-(N-(2-methoxyethyl)sulfamoyl)phenyl)-2-hydroxybenzenesulfonamide], the affinity corresponds to a Ki of 650 nM.
Consider `CNC(=O)c1cc(Cl)cc(NS(=O)(=O)c2cc(Br)ccc2O)c1O` [Example J14, 3-((5-Bromo-2-hydroxyphenyl)sulfonamido)-5-chloro-2-hydroxy-N-methylbenzamide], for which the Ki worked out at 370 nM.
The value for `CNC(=O)c1cc(C2CC2)cc(NS(=O)(=O)c2cc(Br)cc(Cl)c2O)c1O` [Example J95, 3-((5-Bromo-3-chloro-2-hydroxyphenyl)sulfonamido)-5-cyclopropyl-2-hydroxy-N-methylbenzamide] was 390 nM; that for `COCCNC(=O)c1cc(F)cc(NS(=O)(=O)c2cc(Br)ccc2O)c1O` [Example J110, 3-((5-Bromo-2-hydroxyphenyl)sulfonamido)-5-fluoro-2-hydroxy-N-(2-methoxyethyl)benzamide] was 2260 nM.
